SMILES strings stand for the structures.

The test system of the data set is cell. The data set is described as follows: cytotoxicity in a physiological environment (FIG. 8A). In kind it is cell-based. Conditions: no alternating magnetic field.

On to `COc1cccc2c1C(=O)c1c(O)c3c(c(O)c1C2=O)C[C@@](O)(C(=O)CO)C[C@@H]3O[C@H]1C[C@H](N)[C@H](O)[C@H](C)O1` [free DOX, doxorubicin], for which the non-specific cytotoxicity result is on record as “high”.

(Values after patent US20190008773A1, “MAGNETIC FIELD SENSITIVE NANO COMPLEX AND METHOD FOR MANUFACTURING THE SAME” (GWANGJU INSTITUTE OF SCIENCE AND TECHNOLOGY, priority 2017, published 2019).)
